Converted amounts (≈) assume the structure as drawn. Read-outs that look alike come from different tables or passages of the source.
Columns and labels:
Solubility in PBS = type: physicochemical; settings: for solubility at 15 min: Solubility (uM)
Method: After ultracentrifugation of the PBS solution, the supernatant was analyzed by HPLC and compared to an HPLC injection 50 μM peptide DMSO solution. Solubility was determined by: [(Area of PBS peak)/(Area of DMSO peak)]*50 uM.

[1] = molecular target: T1, beta-catenin/TCF4 engagement (Homo sapiens, UniProt P35222); experiment: Nano-BRET target engagement assay (B-cat-Halo & TCF4-Luc in HEK293 cells); type: cell-based
T1 construct: expressed in transfected cells; host or cells: HEK293
T1 sequence (P35222 1-781): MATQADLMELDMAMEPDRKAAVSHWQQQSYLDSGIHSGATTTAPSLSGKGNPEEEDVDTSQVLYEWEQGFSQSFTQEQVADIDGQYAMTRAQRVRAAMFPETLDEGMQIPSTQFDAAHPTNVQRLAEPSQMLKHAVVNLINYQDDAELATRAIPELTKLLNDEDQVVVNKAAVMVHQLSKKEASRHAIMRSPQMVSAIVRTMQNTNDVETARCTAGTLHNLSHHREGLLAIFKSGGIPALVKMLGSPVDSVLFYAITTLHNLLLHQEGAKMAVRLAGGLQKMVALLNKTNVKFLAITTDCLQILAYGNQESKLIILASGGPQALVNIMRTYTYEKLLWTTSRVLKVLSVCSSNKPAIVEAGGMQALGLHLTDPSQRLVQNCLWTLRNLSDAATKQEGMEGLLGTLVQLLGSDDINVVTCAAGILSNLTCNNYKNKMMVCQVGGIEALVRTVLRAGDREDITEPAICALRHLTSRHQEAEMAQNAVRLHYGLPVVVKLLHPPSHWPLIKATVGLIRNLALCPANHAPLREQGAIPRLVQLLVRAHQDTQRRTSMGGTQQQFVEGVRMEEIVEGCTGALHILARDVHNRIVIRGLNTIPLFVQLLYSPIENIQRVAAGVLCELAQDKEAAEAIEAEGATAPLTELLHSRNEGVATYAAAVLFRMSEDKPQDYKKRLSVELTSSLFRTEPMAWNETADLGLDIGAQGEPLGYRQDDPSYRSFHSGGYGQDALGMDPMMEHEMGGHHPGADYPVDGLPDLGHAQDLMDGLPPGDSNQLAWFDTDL

[2] = molecular target: T2, full-length beta-Catenin (Uniprot ID P35222) (Homo sapiens, UniProt P35222); experiment: Fluorescence polarization IC50 (beta-catenin / 5FAM-TCF4 10-53 competition); type: binding
T2 construct: 10 nM full-length beta-Catenin (Uniprot ID P35222)
T2 sequence (P35222 1-781): T1 sequence (P35222 1-781)

CHI Log D procedure = type: physicochemical

## CC(=O)N1CCC[C@]12CC=CCCCC1(CCCC=CCCCOC(=O)N3CC[C@@](C(=O)N[C@@H](CCc4ccccc4)C(=O)N[C@@H](Cc4csc5ccccc45)C(=O)N[C@@H](CCC(N)=O)C(N)=O)(C3)NC(=O)[C@H](Cc3ccccc3)NC(=O)[C@H](Cc3ccccc3)NC(=O)[C@H](C)NC(=O)[C@H](C)NC(=O)[C@H](CC(=O)O)NC(=O)[C@H](CC(=O)O)NC1=O)NC(=O)[C@H](CC(C)(C)C)NC(=O)[C@H](CC(=O)O)NC2=O (stereo partly drawn) [I-1351, PL3-Asp-Npg-B5-Asp-Asp-Ala-Ala-Phe-Phe-PyrS2-hPhe-BztA-Gln-NH2]
Solubility in PBS
  solubility at 15 min: 14 µM (≈ 27.4 µg/mL)

## CC(=O)N1CCC[C@]12CC=CCCCC1(CCCC=CCCCOC(=O)N3CC[C@@](C(=O)N[C@@H](CC4CCCCC4)C(=O)N[C@@H](Cc4csc5ccccc45)C(=O)N[C@@H](CCC(N)=O)C(N)=O)(C3)NC(=O)[C@H](CC(N)=O)NC(=O)[C@H](Cc3ccccc3)NC(=O)[C@H](C)NC(=O)[C@H](C)NC(=O)[C@H](CC(=O)O)NC(=O)[C@H](CC(=O)O)NC1=O)NC(=O)[C@H](CC(C)(C)C)NC(=O)[C@H](CC(=O)O)NC2=O (stereo partly drawn) [I-1329, PL3-Asp-Npg-B5-Asp-Asp-Ala-Ala-Phe-Asn-PyrS2-Cha-BztA-Gln-NH2]
Solubility in PBS
  solubility at 15 min: 45 µM (≈ 86.3 µg/mL)

## CC(=O)N1CCC[C@]12CC=CCCCC1(CCCC=CCCCOC(=O)N3CC[C@@](C(=O)N[C@@H](Cc4ccccc4)C(=O)N[C@@H](Cc4csc5ccccc45)C(=O)N[C@H](C(N)=O)[C@@H](C)O)(C3)NC(=O)[C@H](CC(C)C)NC(=O)[C@H](Cc3ccccc3)NC(=O)[C@H](C)NC(=O)[C@H](C)NC(=O)[C@H]([C@@H](C)O)NC(=O)[C@H](CC(N)=O)NC1=O)NC(=O)[C@H](CC(C)(C)C)NC(=O)[C@H](CC(=O)O)NC2=O (single isomer, unassigned) [I-1300, Ac-PL3-Asp-Npg-B5-Asn-Thr-Ala-Ala-Phe-Leu-PyrS2-Phe-BztA-Thr-NH2]
Solubility in PBS
  Solubility: 10 µM (≈ 18.7 µg/mL)

## CC(=O)N1CCC[C@]12CC=CCCCC1(CCCC=CCCCOC(=O)N3CC[C@@](C(=O)N[C@@H](Cc4ccccc4)C(=O)N[C@@H](Cc4csc5ccccc45)C(=O)N[C@@H](CCC(N)=O)C(N)=O)(C3)NC(=O)[C@H](CC(C)C)NC(=O)[C@H](Cc3ccccc3)NC(=O)[C@H](C)NC(=O)[C@H](C)NC(=O)[C@H]([C@@H](C)O)NC(=O)[C@H](CC(N)=O)NC1=O)NC(=O)[C@H](CC(C)(C)C)NC(=O)[C@H](CC(=O)O)NC2=O (stereo partly drawn) [I-1294, Ac-PL3-Asp-Npg-B5-Asn-Thr-Ala-Ala-Phe-Leu-PyrS2-Phe-BztA-Gln-NH2]
Solubility in PBS
  Solubility: 10 µM (≈ 19 µg/mL)

## CC(=O)N1CCC[C@]12CC=CCCCC1(CCCC=CCCCOC(=O)N3CC[C@@](C(=O)N[C@@H](Cc4ccccc4)C(=O)N[C@@H](Cc4ccc5ccccc5c4)C(=O)N[C@@H](CCC(N)=O)C(N)=O)(C3)NC(=O)[C@H](CC(C)C)NC(=O)[C@H](Cc3ccccc3)NC(=O)[C@H](C)NC(=O)[C@H](C)NC(=O)[C@H]([C@@H](C)O)NC(=O)[C@H](CC(=O)O)NC1=O)NC(=O)[C@H](CC(C)(C)C)NC(=O)[C@H](CC(N)=O)NC2=O (single isomer, unassigned) [I-1291, Ac-PL3-Asn-Npg-B5-Asp-Thr-Ala-Ala-Phe-Leu-PyrS2-Phe-2NapA-Gln-NH2]
Solubility in PBS
  Solubility: 10 µM (≈ 18.9 µg/mL)

## CC(=O)N1CCC[C@]12CC=CCCCC1(CCCC=CCCCOC(=O)N3CC[C@@](C(=O)N[C@@H](Cc4ccccc4Cl)C(=O)N[C@@H](Cc4csc5ccccc45)C(=O)N[C@H](CO)[C@@H](C)O)(C3)NC(=O)[C@H](Cc3ccccc3)NC(=O)[C@H](Cc3ccccc3)NC(=O)[C@H](C)NC(=O)[C@H](C)NC(=O)[C@H](Cc3cccc(C(=O)O)c3)NC(=O)[C@H](CC(=O)O)NC1=O)NC(=O)[C@H](CC(C)(C)C)NC(=O)[C@H](CC(=O)O)NC2=O (stereo partly drawn) [I-1340, PL3-Asp-Npg-B5-Asp-3COOHF-Ala-Ala-Phe-Phe-PyrS2-2C1F-BztA-Thro1]
Solubility in PBS
  Solubility: 10 µM (≈ 20.2 µg/mL)

## CC(=O)N1CCC[C@]12CC=CCCCC1(CCCC=CCCCOC(=O)N3CC[C@@](C(=O)N[C@@H](Cc4ccccc4)C(=O)N[C@@H](Cc4csc5ccccc45)C(=O)N[C@@H](CCC(N)=O)C(N)=O)(C3)NC(=O)[C@H](CC(C)C)NC(=O)[C@H](Cc3ccccc3)NC(=O)[C@H](C)NC(=O)[C@H](C)NC(=O)[C@H]([C@@H](C)O)NC(=O)[C@H](CC(=O)O)NC1=O)NC(=O)[C@H](CC(C)(C)C)NC(=O)[C@H](CC(N)=O)NC2=O (single isomer, unassigned) [I-1285, Ac-PL3-Asn-Npg-B5-Asp-Thr-Ala-Ala-Phe-Leu-PyrS2-Phe-BztA-Gln-NH2]
Solubility in PBS
  Solubility: 10 µM (≈ 19 µg/mL)

## CC(=O)N1CCC[C@]12CC=CCCCC1(CCCC=CCCCOC(=O)N3CC[C@@](C(=O)N[C@@H](Cc4ccccc4)C(=O)N[C@@H](Cc4csc5ccccc45)C(=O)N[C@@H](CCC(N)=O)C(N)=O)(C3)NC(=O)[C@H](CC(C)C)NC(=O)[C@H](Cc3ccccc3)NC(=O)[C@H](C)NC(=O)[C@H](CCCCNC(C)C)NC(=O)[C@H](CCCCN)NC(=O)[C@H](CC(N)=O)NC1=O)NC(=O)[C@H](C)NC(=O)[C@H](CC(=O)O)NC2=O (stereo partly drawn) [I-1380, Ac-PL3-Asp-Ala-B5-Asn-Lys-iPrLys-Ala-Phe-Leu-PyrS2-Phe-BztA-Gln-NH2]
Solubility in PBS
  Solubility: 10 µM (≈ 19.7 µg/mL)

## CCN(CC)C(=O)[C@H](CCC(N)=O)NC(=O)[C@H](Cc1csc2ccccc12)NC(=O)[C@H](Cc1ccsc1)NC(=O)[C@]12CCN(C1)C(=O)OCCCC=CCCCC1(CCCC=CC[C@]3(CCCN3C(C)=O)C(=O)N[C@@H](CC(=O)O)C(=O)N[C@@H](CC(C)(C)C)C(=O)N1)C(=O)N[C@@H](CC(=O)O)C(=O)N[C@@H](CC(=O)O)C(=O)N[C@@H](C)C(=O)N[C@@H](C)C(=O)N[C@@H](Cc1ccccc1)C(=O)N[C@@H](CC(N)=O)C(=O)N2 (stereo partly drawn) [I-1373, PL3-Asp-Npg-B5-Asp-Asp-Ala-Ala-Phe-Asn-PyrS2-3Thi-BztA-Gln-NEt2]
Solubility in PBS
  Solubility: 50 µM (≈ 98.7 µg/mL)

## CC(=O)N1CCC[C@]12CC=CCCCC1(CCCC=CCCCOC(=O)N3CC[C@@](C(=O)N[C@@H](CC4CCCC4)C(=O)N[C@@H](Cc4csc5ccccc45)C(=O)N[C@@H](CCC(N)=O)C(N)=O)(C3)NC(=O)[C@H](CC(C)C)NC(=O)[C@H](Cc3ccccc3)NC(=O)[C@H](C)NC(=O)[C@H](C)NC(=O)[C@H](CC(=O)O)NC(=O)[C@H](CC(=O)O)NC1=O)NC(=O)[C@H](CC(C)(C)C)NC(=O)[C@H](CC(=O)O)NC2=O (stereo partly drawn) [I-1353, PL3-Asp-Npg-B5-Asp-Asp-Ala-Ala-Phe-Leu-PyrS2-CypA-BztA-Gln-NH2]
Solubility in PBS
  solubility at 15 min: 44 µM (≈ 83.7 µg/mL)

## C#CCOCCC(=O)NCCCC[C@H](NC(=O)[C@H](CCC(N)=O)NC(=O)[C@H](Cc1csc2ccccc12)NC(=O)[C@H](Cc1ccsc1)NC(=O)[C@]12CCN(C1)C(=O)OCCCC=CCCCC1(CCCC=CC[C@]3(CCCN3C(C)=O)C(=O)N[C@@H](CC(=O)O)C(=O)N[C@@H](CC(C)(C)C)C(=O)N1)C(=O)N[C@@H](CC(=O)O)C(=O)N[C@@H](CC(=O)O)C(=O)N[C@@H](C)C(=O)N[C@@H](C)C(=O)N[C@@H](Cc1ccccc1)C(=O)N[C@@H](CC(N)=O)C(=O)N2)C(N)=O (stereo partly drawn) [I-935, Ac-PL3-Asp-Npg-B5-Asp-Asp-Ala-Ala-Phe-Asn-PyrS2-3Thi-BztA-Gln-[PropynPEG1]Lys-NH2]
[1]; read-out: NanoBRET Abs IC50
  IC50: 33.1 µM
[2]; read-out: beta-Catenin FP IC50
  IC50: 0.008 µM
CHI Log D procedure; pH 7.4, CHI Log D
  chromatographic logD: 1.93

## CC(=O)N1CCC[C@]12CC=CCCCC1(CCCC=CCCCOC(=O)N3CC[C@@](C(=O)N[C@@H](Cc4ccsc4)C(=O)N[C@@H](Cc4csc5ccccc45)C(=O)N[C@@H](CCC(N)=O)C(N)=O)(C3)NC(=O)[C@H](CC(N)=O)NC(=O)[C@H](Cc3ccccc3)NC(=O)[C@H](C)NC(=O)[C@H](C)NC(=O)[C@H](CN(CC(=O)O)CC(F)(F)F)NC(=O)[C@H](CC(=O)O)NC1=O)NC(=O)[C@H](CC(C)(C)C)NC(=O)[C@H](CC(=O)O)NC2=O (stereo partly drawn) [I-761, Ac-PL3-Asp-Npg-B5-Asp-TfeGA-Ala-Ala-Phe-Asn-PyrS2-3Thi-BztA-Gln-NH2]
[1]; HEK293, @ 10 uM, read-out: NanoBRET % inh @ 10 uM
  inhibition at 10 µM: 63.4%
[1]; read-out: NanoBRET IC50
  IC50: 5 µM
[2]; read-out: bCat FP IC50
  IC50: < 0.005 µM
[2]; read-out: beta-Catenin FP IC50
  IC50: 0.005 µM
CHI Log D procedure; pH 7.4
  CHI Log D: 2.207
  logD: 2.2

## CC(=O)N1CCC[C@]12CC=CCCCC1(CCCC=CCCCOC(=O)N3CC[C@@](C(=O)N[C@@H](Cc4ccsc4)C(=O)N[C@@H](Cc4csc5ccccc45)C(=O)N[C@@H](Cc4c[nH]cn4)C(N)=O)(C3)NC(=O)[C@H](CC(N)=O)NC(=O)[C@H](Cc3ccccc3)NC(=O)[C@H](C)NC(=O)[C@H](C)NC(=O)[C@H](CN(CC(=O)O)CC(F)(F)F)NC(=O)[C@H](CC(=O)O)NC1=O)NC(=O)[C@H](CC(C)(C)C)NC(=O)[C@H](CC(=O)O)NC2=O (stereo partly drawn) [I-769, Ac-PL3-Asp-Npg-B5-Asp-TfeGA-Ala-Ala-Phe-Asn-PyrS2-3Thi-BztA-His-NH2]
[1]; Abs IC50, read-out: NanoBRET Abs IC50
  IC50: 13 µM
[1]; read-out: NanoBRET Abs IC50
  IC50: 13 µM
[2]; read-out: beta-Catenin FP IC50
  IC50: 0.005 µM
CHI Log D procedure; pH 7.4
  CHI Log D: 2.307
